Measurements reported in patent publication US20030130343A1, “Fat accumulation-modulating compounds” (AdipoGenix, Inc., priority 2001, published 2003).

Tests used:
[1] = test system: primary human subcutaneous preadipocytes; assay: High throughput screening of compound efficacy: fluorescent fatty acid (FA*) accumulation in differentiating human preadipocytes; assay type: cell-based; design: key to Relative Efficacy: “+++” designates a greater in vitro efficacy than “++”; “++”, which in turn is greater than “+”; “+”; settings: for Relative Efficacy: inhibitors of fatty acid accumulation into differentiating adipocytes at a concentration of 100 nM
Method: Protocol for High Throughput Screening of Compound Efficacy on Human Preadipocytes Up to five cell strains of banked primary human subcutaneous preadipocytes were used for high throughput screening. […] Cells were split up to four times to produce enough cells for screening. […] On day zero, cells were incubated with growth medium to induce differentiation of preadipocytes into adipocytes (characterized by cell rounding, formation of triglyceride droplets, etc.). Growth medium was changed every three days. On day six, cells were incubated in triplicate with test compounds at various concentrations. […] Cell plates were prewashed with FAB+, and then FA* was added. Cells were incubated with FA* for four hours, and then postwashed with FAB+ to remove unincorporated FA*. Cellular fluorescence of triglyceride droplets that have incorporated FA* was measured on a microplate reader. Efficacy of compounds on inhibiting FA* accumulation was determined by the following calculation: […]

mice = settings: single injections; cited from earlier work
[2] = test system: primary human subcutaneous preadipocytes; settings: at 10 μM; Alamar Blue
Method: Subsequent determination of compound toxicity was measured by incubating cells with Alamar Blue (an indicator of cellular viability, purchased from BioSource International Inc., Camarillo, Calif., USA) for three to four hours before measuring fluorescence of the reduced compound. Toxicity of compounds was determined by the following calculation:
% Toxicity=100−(sample fluorescence/negative control fluorescence*100)

| Structure (SMILES) | Relative Efficacy [1] | other results |
| --- | --- | --- |
| O=C(Nc1ccncc1)c1cc([N+](=O)[O-])ccc1Cl [AGX-0104] | +++ |  |
| O=C(Nc1cccnc1)c1cc([N+](=O)[O-])ccc1Cl [AGX-0105] | +++ |  |
| Cc1cc(NC(=O)c2cc([N+](=O)[O-])ccc2Cl)no1 [AGX-0114] | ++ |  |
| C=C1C(=O)OC(CCCCCCCC)C1C(=O)O (stereo not drawn) [C75] |  | ate less than untreated littermates consumed (mice): 90% |
| N#CC(C#N)=NNc1ccc(OC(F)(F)F)cc1 [FCCP, carbonyl cyanide p-(trifluoromethoxy)-phenylhydrazone] |  | Emax at 10 µM ([1]; Homo sapiens, at 10 μM, read-out: % Efficacy (inhibiting FA* accumulation)): 100%; % Toxicity [2]: 100% |
